According to patent US11202871B2, “Devices for evaporation and inhalation of active agents” (Emplicure AB, priority 2016, dated 2021):
Counter-ions that a name gives are not always drawn. Like-named read-outs stand apart in the source and are kept apart here.

Columns and labels:
[1] = Oven heating of aluminium oxide ceramic discs loaded with ibuprofen; amount remaining by UV; assay type: physicochemical; details: Al2O3 discs, oven 250° C. for 15 minutes
Method: Ceramic discs comprising ibuprofen (IOL Chemicals and Pharmaceuticals Ltd, India) were prepared using aluminium oxide (Al2O3; Keranova, Sweden) as follows.
Ceramic discs (Al2O3) with different pore sizes (0.25, 1, 6, 15 and 30 μm) were prepared in two sizes: (i) 63 mm in diameter and 6.3 mm in thickness (pore sizes 0.25, 1 and 6 μm); and (ii) 48 mm in diameter and 6.3 mm in thickness (pore sizes 15 and 30 μm). The porosity was approximately 40% vol and the density 3.75 g/cm^3 for all discs according to product specification.
The discs (pore sizes 0.25, 1, 6, 15 and 30 μm) were soaked in a 400 ml in phosphate buffer with pH 7.4 (one phosphate buffer saline tablet (Sigma-Aldrich, USA) dissolved in 200 ml deionized water) with a concentration of 408.5 μg/ml ibuprofen for 24 hours. The discs were dried in room temperature for 24 hours. […] All discs were measured for concentration of ibuprofen in 400 ml phosphate buffer pH 7.4 at 37° C. (USP paddle method (paddle speed 50 rpm), VanKel 7025, Varian Inc, USA) and the concentration for ibuprofen was measured using a UV spectrophotometer Shimadzu 1800, Japan at a wavelength of 220 nm to determine the amount of ibuprofen in the ceramic discs. The amount of ibuprofen in control discs was measured after 15 hours (i.e. after maximum drug release) and in heat treated discs after 1.5 hours (i.e. the maximal amount drug was at this time point released).

[2] = Oven heating of Al2O3 rods soaked in sumatriptan succinate solution; assay type: physicochemical
Description: Aluminium oxide ceramic rods were obtained from […] (Sweden): […] Oven […] 218 was obtained from Wilfa, (Norway).

[3] = Oven heating of calcium sulphate coins pre-loaded with sumatriptan succinate; assay type: physicochemical; details: pre-loaded calcium sulphate coins (0.07 g/g calcium sulphate); oven approx. 250° C.
[4] = Description: Calcium sulphate alpha hemihydrate (CaS) was obtained from Bo Ehrlander AB (Sweden). Clonidine hydrochloride was obtained from PCAS (Finland). Shaped silicon rubbers were used as molds for coins (diameter: 12 mm, thickness: 2 mm). The calcium sulphate was mixed with powder of Clonidine hydrochloride (0.07 g Clonidine hydrochloride/g calcium sulphate) and deionised water (Liquid/Powder ratio of 0.4 (w/w)) to form a homogenous paste, which was used to fill the rubber molds. Once the paste had been applied, the molds were set to dry for at least 12 h under ambient conditions.
The oven temperature was set to approximately 250° C.
(§1) Each coin was weighed and immersed into a beaker containing 200 ml of deionised water. […] The sample was characterized by Shimadzu LC-2030 (Germany) HPLC system with a Genesis C18 analytical column 4 μm (100×2.1 mm i.d.) with a mobile phase of acetonitrile/phosphoric acid, pH 3 (11/89). The wavelength was set to 220 nm.
The reference samples represent the amount of clonidine hydrochloride mg/g calcium sulphate that was loaded before heat treatment.

[5] = calcium sulphate coins, solution 50 μl, 5 mg/ml dispensed; oven approx. 250° C., 0 to 15 minutes
Method: Calcium sulphate alpha hemihydrate (CaS) was obtained from Bo Ehrlander AB (Sweden). Clonidine hydrochloride was obtained from PCAS (Finland). Shaped silicon rubbers were used as molds for coins (diameter: 12 mm, thickness: 2 mm). The calcium sulphate was mixed with deionised water (Liquid/Powder ratio of 0.4 (w/w)) to form a homogenous paste, which was used to fill the rubber molds. When the paste was applied, the molds were set to dry for at least 12 h under ambient conditions.
Clonidine hydrochloride solution (50 μl, 5 mg/ml) was dispensed onto the calcium sulphate coins. When the solution was applied, the coins were set to dry for at least 12 h under ambient conditions.
The temperature was set to approximately 250° C.
as §1
The reference samples represent the amount of clonidine hydrochloride that was loaded before heat treatment.

[6] = for amount of nicotine detected in the reference sample (not heated) / nicotine detected in coins after heating versus reference: pure nicotine (20 mg) dispensed; for amount of nicotine detected in the reference sample (not heated): dried 24 hours
[7] = calcium sulphate rods soaked 24 hours in pure nicotine; heated 5*10 sec.; max 315° C., 6 W
Description: Aluminium oxide ceramic rods and calcium sulphate rods were obtained as described in Example 3. Nicotine and nicotine solutions were supplied and applied, and nicotine levels were detected as described in Example 3.
Samples were heated using a prototype e-cigarette device (X-Cube II, Smoke) obtained from Devex Mekatronik AB (Sweden). The device is derived from the commercially available e-cigarette X-Cube.
The sample in the device was heated up by a coil that is wrapped around the sample.
The end of the device was connected to a vial via a silicon hose. The vial contained 1 ml of deionised water. To simulate smoking a rod was put into the device and puffing was performed. Puffing involves a sequence of 5 puffs that are each 10 seconds long. After puffing, the hose was removed and flushed with the water. The water was analysed for concentration of nicotine.

[8] = calcium sulphate coins, nicotine solution 50 μl, 18 mg/ml dispensed
Description: Calcium sulphate coins were obtained as described in Example 3. For the indirect induction test a magnet was molded into the coin. Nicotine and nicotine solutions were supplied and applied, and nicotine levels were detected as described in Example 3.
Metal plate for induction cooker was obtained from Haneström (Sweden). Induction cooker Wilfa ICP-2000 was obtained from Media Markt (Sweden). Magnets (10*1 mm, Samarium Cobalt magnets, 0.4 kg pull) were obtained from first4magnets (UK). IR-thermometer (MS6520A) was obtained from Mastech (USA).
Heat treatment by indirect induction was carried out by placing a metal plate onto the induction cooker. The ceramic coins containing a magnet was applied onto the metal plate and heated on maximum effect (exact temperature was not measured; see FIG. 10).

[9] = Liquid/Powder 0.4 (w/w)
Method: Calcium sulphate alpha hemihydrate (CaS) was obtained from Bo Ehrlander AB (Sweden). Shaped silicon rubbers were used as molds for coins (diameter: 12 mm, thickness: 2 mm). The calcium sulphate was mixed with a nicotine solution with a concentration of 5 or 20 mg/ml of nicotine (Liquid/Powder ratio of 0.4 (w/w)) to form a homogenous paste, which was filled in the rubber molds. Once the paste was applied, the molds were set to dry for at least 12 h under ambient conditions.
The temperature was set to approximately 200° C.
The sample was characterized by UV-spectrophotometer at a wavelength of 219 nm. The amount nicotine in the samples were then calculated.

[10] = Al2O3 discs, oven 188° C. for 15 minutes
[11] = calcium sulphate rods soaked in pure nicotine, oven approx. 200° C.

## CC(C)Cc1ccc(C(C)C(=O)O)cc1 (stereo not drawn) [ibuprofen]
[1]; pore sizes 0.25, 1, 6, 15 and 30 μm, all samples
  amount of ibuprofen remaining after heat treatment: zero
[1]
  degradation of ibuprofen on heating (changes in absorbance at other wavelengths): no significant degradation

## CNS(=O)(=O)Cc1ccc2[nH]cc(CCN(C)C)c2c1 [sumatriptan succinate]
[2]; Al2O3 rods soaked in 20 mg/ml solution for 24 hours
  amount of sumatriptan succinate the rods were able to absorb: approximately 1 mg sumatriptan succinate/rod
[2]; Al2O3 rods soaked in 20 mg/ml solution, oven approx. 300° C.
  time within which almost all of the sumatriptan succinate was released when heated: 5 to 15 min
[3]
  time within which almost all of the sumatriptan succinate was released when heated: ≤ 15 min

## Clc1cccc(Cl)c1N=C1NCCN1 [clonidine hydrochloride]
[4]; calcium sulphate coins, 0.07 g clonidine hydrochloride/g calcium sulphate, coin approx. 0.3 g
  amount of clonidine hydrochloride contained in a coin: approximately 17 mg
[4]; pre-loaded calcium sulphate coins, oven approx. 250° C.
  time within which almost all of the clonidine hydrochloride was released when heated: ≤ 15 min
[5]
  amount of clonidine hydrochloride present in the coins during heating: decreased significantly over time

## CN1CCCC1c1cccnc1 (stereo not drawn) [nicotine]
[6]; aluminium oxide rods soaked in 6 mg/ml nicotine solution (diluted e-juice) 24 hours, oven approx. 200° C.
  time within which almost all of the nicotine was released when heated: 5 to 10 min
[6]; aluminium oxide rods soaked in 6 mg/ml nicotine solution for 24 hours
  amount of nicotine the rods were able to absorb: approximately 135 μg nicotine/rod
[6]; calcium sulphate coins
  amount of nicotine detected in the reference sample (not heated): lower than 20 mg
[6]; calcium sulphate coins, oven approx. 200° C.
  nicotine detected in coins after heating versus reference: a lower release of nicotine was detected after heating
[6]; calcium sulphate rods soaked in pure nicotine for 24 hours
  amount of nicotine the rods were able to absorb: approximately 20 mg nicotine/rod
[6]; [11]
  nicotine release during heating: Most of the nicotine was released during heating
  nicotine release, 5 min versus 1 min of heating: a higher amount was released during 5 min of heating compared to 1 min of heating
[6]; geopolymer coins
  amount of nicotine detected in the reference sample (not heated): about 16 mg
[6]; geopolymer coins, oven approx. 200° C.
  nicotine detected in coins after heating versus reference: a lower release of nicotine was detected after heating
[7]
  nicotine release on heat treatment in e-cigarette device: a heat treatment in the device will result in a nicotine release
[8]; heated about 1 or about 5 minutes
  nicotine release on induction heating, unheated plate: Most of the nicotine was released within the first minute
[8]; plate at least 150° C., heated 5 seconds
  nicotine release on induction heating, pre-heated plate: a substantial quantity of nicotine was released
[9]; calcium sulphate coins mixed with 5 mg/ml nicotine solution
  amount of nicotine contained in the coins: approximately 180 μg
[9]; calcium sulphate coins mixed with 20 mg/ml nicotine solution
  amount of nicotine contained in the coins: ~390 µg
[10]; pore sizes 0.25, 6, 15 and 30 μm, all samples
  amount of nicotine remaining after heat treatment compared to pre-heat treatment control: very significantly reduced
[10]
  degradation of nicotine on heating (changes in absorbance at other wavelengths): no significant degradation
